Measured values reported in US8476298B2 (Exelixis, Inc., priority 2003, dated 2013).
Read-outs that look alike come from different tables or passages of the source.

Legend:
[1] = molecular target: T1, Flt-3 (baculovirus expressed human Flt-3 kinase domain R571-S993) (Homo sapiens, UniProt P36888); experiment: biochemical; conditions: read-out: flt3 IC50;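 note: Luciferase-coupled chemiluminescent kinase assay, activity read as percent ATP left after a 3 h reaction at room temperature, ATP near KM, 10-point dose-response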
T1 construct: human Flt-3 kinase domain R571-S993; host or cells: baculovirus expression
T1 sequence (P36888 571-993): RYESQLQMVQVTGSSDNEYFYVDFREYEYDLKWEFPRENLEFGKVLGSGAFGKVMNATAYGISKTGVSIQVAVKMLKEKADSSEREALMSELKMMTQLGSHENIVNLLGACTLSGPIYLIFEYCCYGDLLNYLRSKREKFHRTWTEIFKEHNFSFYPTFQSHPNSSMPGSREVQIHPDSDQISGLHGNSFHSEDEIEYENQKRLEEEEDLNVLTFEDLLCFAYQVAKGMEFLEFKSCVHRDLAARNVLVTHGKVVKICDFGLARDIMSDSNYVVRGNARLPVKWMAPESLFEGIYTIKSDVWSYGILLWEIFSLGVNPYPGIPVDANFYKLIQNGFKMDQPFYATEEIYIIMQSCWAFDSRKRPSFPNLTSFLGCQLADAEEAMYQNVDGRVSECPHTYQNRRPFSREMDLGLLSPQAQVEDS

[2] = molecular target: T2, c-Met (baculovirus expressed human c-Met kinase domain P948-S1343) (Homo sapiens, UniProt P08581); experiment: c-Met Luciferase-Coupled Chemiluminescent Kinase assay (LCCA); assay type: biochemical;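 note: kinase activity read as percent ATP left after reaction, by luciferase-luciferin chemiluminescence, with 1 µM ATP and 1 µM poly-EY substrate, 2 h at ambient temperature, 10-point dose-response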
T2 construct: human c-Met kinase domain P948-S1343; host or cells: baculovirus expression
T2 sequence (P08581 1011-1343 limits assumed): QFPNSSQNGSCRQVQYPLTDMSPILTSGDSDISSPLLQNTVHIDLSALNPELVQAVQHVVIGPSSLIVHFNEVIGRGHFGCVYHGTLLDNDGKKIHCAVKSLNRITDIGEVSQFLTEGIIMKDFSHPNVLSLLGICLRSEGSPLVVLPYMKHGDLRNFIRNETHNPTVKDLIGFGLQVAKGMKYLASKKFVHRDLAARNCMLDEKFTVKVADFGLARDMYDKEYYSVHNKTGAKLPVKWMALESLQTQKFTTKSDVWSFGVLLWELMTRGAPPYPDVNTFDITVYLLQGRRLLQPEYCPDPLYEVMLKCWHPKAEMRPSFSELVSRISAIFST

[3] = molecular target: T3, KDR (baculovirus expressed human KDR kinase domain D807-V1356) (Homo sapiens, UniProt P35968); experiment: biochemical;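 note: Luciferase-coupled chemiluminescent kinase assay, activity read as percent ATP left after 4 h reaction at ambient temperature, ATP near KM, 10-point dose-response in 384-well plates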
T3 construct: human KDR kinase domain D807-V1356; host or cells: baculovirus expression
T3 sequence (P35968 807-1356): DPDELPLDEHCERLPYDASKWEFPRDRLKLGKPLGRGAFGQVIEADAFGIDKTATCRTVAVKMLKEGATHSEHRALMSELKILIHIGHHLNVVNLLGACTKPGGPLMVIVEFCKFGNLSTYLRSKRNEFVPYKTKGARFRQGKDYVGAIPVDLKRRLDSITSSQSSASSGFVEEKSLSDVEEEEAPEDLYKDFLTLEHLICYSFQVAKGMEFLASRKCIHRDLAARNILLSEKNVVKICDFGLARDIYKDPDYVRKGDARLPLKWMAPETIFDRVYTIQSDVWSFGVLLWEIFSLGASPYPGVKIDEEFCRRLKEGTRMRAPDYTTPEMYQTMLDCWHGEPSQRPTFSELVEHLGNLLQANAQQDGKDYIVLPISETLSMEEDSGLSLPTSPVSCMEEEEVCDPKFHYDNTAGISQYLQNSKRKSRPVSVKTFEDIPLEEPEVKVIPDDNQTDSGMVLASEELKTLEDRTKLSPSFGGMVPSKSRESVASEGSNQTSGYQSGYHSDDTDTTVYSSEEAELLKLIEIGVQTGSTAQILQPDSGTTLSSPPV

[4] = molecular target: T4, Flt-4 (baculovirus expressed human Flt-4 kinase domain D725-R1298) (Homo sapiens, UniProt P35916); experiment: flt-4 Alphascreen Tyrosine Kinase assay; assay type: biochemical; conditions: read-out: flt4 IC50;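 note: AlphaScreen chemiluminescence read-out of biotinylated poly(Glu,Tyr) 4:1 phosphorylation via streptavidin donor and PY100 anti-phosphotyrosine acceptor beads, ATP near KM, 1 hr kinase reaction, 10-point dose-response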
T4 construct: human Flt-4 kinase domain D725-R1298; host or cells: baculovirus expression
T4 sequence (P35916 725-1298 isoform P35916-1): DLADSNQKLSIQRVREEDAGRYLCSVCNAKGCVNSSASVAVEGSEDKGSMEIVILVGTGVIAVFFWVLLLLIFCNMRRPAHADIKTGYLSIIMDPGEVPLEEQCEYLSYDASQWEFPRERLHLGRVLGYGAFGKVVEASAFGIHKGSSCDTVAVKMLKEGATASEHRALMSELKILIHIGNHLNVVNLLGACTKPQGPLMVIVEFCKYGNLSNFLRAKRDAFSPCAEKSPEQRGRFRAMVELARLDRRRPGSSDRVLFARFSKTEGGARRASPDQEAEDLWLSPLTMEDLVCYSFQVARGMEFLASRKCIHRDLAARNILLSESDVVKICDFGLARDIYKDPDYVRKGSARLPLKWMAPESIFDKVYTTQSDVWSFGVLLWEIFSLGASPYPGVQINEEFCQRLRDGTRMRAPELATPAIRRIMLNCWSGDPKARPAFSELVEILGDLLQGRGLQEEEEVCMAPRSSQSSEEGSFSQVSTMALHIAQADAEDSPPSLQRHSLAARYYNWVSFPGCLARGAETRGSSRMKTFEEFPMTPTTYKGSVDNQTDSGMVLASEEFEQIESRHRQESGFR
Description: Kinase activity and compound inhibition are investigated using one or more of the three assay formats described below. The ATP concentrations for each assay are selected to be close to the Michaelis-Menten constant (KM) for each individual kinase. Dose-response experiments are performed at 10 different inhibitor concentrations in a 384-well plate format. […] Typically H is close to unity. c-Met Assay
Biochemical activity for flt-4 was assessed using an Alphascreen Tyrosine Kinase protocol. AlphaScreen™ (Perkin Elmer) technology is a proximity assay employing microparticles. Singlet oxygen derived from a donor bead following laser excitation results in chemiluminescence when in proximity (100 Å) to an acceptor bead due to biomolecular interactions. For the Flt-4 assay, donor beads coated with streptavidin and acceptor beads coated with PY100 anti-phosphotyrosine antibody were used (Perkin Elmer). Biotinylated poly(Glu,Tyr) 4:1 (Perkin Elmer) was used as the substrate. Substrate phosphorylation was measured by addition of donor/acceptor beads by chemiluminescence following donor-acceptor bead complex formation. […] Reaction mixtures were incubated for 1 hr at ambient temperature. […] After 2-16 hr incubation at ambient temperature plates were read using an AlphaQuest reader (Perkin Elmer).

c-Kit kinase = c-Kit kinase (Homo sapiens, UniProt P10721); experiment: c-Kit AlphaScreen kinase assay; assay type: biochemical;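 note: c-Kit kinase phosphorylating biotinylated poly(Glu,Tyr), ATP near its KM, 1 h reaction at ambient temperature, AlphaScreen chemiluminescence with streptavidin donor and anti-phosphotyrosine acceptor beads, 10-point inhibitor titration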
c-Kit kinase, sequence (P10721 26-976): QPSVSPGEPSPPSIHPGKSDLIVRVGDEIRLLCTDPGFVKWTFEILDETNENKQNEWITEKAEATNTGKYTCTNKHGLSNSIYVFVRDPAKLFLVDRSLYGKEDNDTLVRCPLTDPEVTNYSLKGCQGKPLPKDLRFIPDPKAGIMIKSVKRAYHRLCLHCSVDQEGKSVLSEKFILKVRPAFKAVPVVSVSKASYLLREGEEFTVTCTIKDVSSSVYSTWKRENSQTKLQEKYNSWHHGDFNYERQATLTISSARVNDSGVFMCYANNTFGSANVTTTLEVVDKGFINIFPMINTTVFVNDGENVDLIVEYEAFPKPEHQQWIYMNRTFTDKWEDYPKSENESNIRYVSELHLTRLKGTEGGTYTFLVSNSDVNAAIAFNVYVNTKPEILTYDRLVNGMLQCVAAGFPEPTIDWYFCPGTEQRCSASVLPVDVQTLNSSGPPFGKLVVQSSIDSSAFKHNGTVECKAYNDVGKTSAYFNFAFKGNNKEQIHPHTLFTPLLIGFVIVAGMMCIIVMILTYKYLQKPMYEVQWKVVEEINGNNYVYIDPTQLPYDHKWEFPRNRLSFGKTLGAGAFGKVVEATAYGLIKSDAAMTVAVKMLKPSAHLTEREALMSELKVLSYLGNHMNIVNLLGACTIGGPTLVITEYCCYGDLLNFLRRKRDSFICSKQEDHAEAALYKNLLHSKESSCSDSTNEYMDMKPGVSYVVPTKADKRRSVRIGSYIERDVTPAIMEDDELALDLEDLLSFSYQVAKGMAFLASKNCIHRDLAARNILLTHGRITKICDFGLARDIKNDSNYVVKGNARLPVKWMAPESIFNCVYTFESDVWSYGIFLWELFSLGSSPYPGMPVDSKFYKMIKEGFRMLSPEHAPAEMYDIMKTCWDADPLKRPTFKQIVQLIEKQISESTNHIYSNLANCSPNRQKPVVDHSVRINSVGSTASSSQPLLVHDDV

[5] = Table 4, inhibition as IC50 class

Structure (SMILES)	IC50 [1, 5] [nM]	IC50 [2, 5] [nM]	IC50 [3, 5] [nM]	IC50 [4, 5] [nM]	IC50 (c-Kit kinase; [5]) [nM]	IC50 [1] [nM]	IC50 [2] [nM]	IC50 [3] [nM]	IC50 [4] [nM]	IC50 (c-Kit kinase) [nM]
COc1cc2c(Oc3ccc(NC(=O)C(=O)NCCC(C)C)cc3F)ccnc2cc1OCC1CCNCC1 [Example 263, N-[3-fluoro-4-({6-(methyloxy)-7-[(piperidin-4-ylmethyl)oxy]quinolin-4-yl}oxy)phenyl]-N′-(3-methylbutyl)ethanediamide]	50 to 500	< 50	50 to 500	50 to 500	< 50					
CCN(CC)CCCOc1cc2nccc(Oc3ccc(NC(=O)C4(C(=O)Nc5ccc(F)cc5)CC4)cc3F)c2cc1OC [Example 336, N-(4-{[7-{[3-(diethylamino)propyl]oxy}-6-(methyloxy)quinolin-4-yl]oxy}-3-fluorophenyl)-N′-(4-fluorophenyl)cyclopropane-1,1-dicarboxamide]						< 50	< 50	< 50	< 50	< 50
COc1cc2nccc(Oc3cc(Cl)c(NC(=O)C4(C(=O)Nc5ccc(F)cc5)CC4)cc3C)c2cc1OC [Example 329, N-(4-{[6,7-bis(methyloxy)quinolin-4-yl]oxy}-2-chloro-5-methylphenyl)-N′-(4-fluorophenyl)cyclopropane-1,1-dicarboxamide]						500 to 5000	< 50	50 to 500	50 to 500	50 to 500
COc1cc2ncnc(Oc3ccc(NC(=O)C4(C(=O)Nc5ccc(F)cc5)CC4)cc3F)c2cc1OC [Example 311, N-(4-{[6,7-bis(methyloxy)quinazolin-4-yl]oxy}-3-fluorophenyl)-N′-(4-fluorophenyl)cyclopropane-1,1-dicarboxamide]						< 50	< 50	< 50	< 50	50 to 500
COc1cc2c(Oc3ncc(NC(=O)CC(=O)Nc4ccc(F)cc4)cc3Cl)ccnc2cc1OCCCN1CCOCC1 [Example 266, N-[5-chloro-6-({6-(methyloxy)-7-[(3-morpholin-4-ylpropyl)oxy]quinolin-4-yl}oxy)pyridin-3-yl]-N′-(4-fluorophenyl)propanediamide]	< 50	< 50	50 to 500	50 to 500	50 to 500					
COc1cc2c(Oc3ccc(NC(=O)[C@@]4(C(=O)Nc5ccc(F)cc5)C[C@H]4C)cc3F)ccnc2cc1OCCCN1CCOCC1 [Example 342, (1S,2R)-N-[3-fluoro-4-({6-(methyloxy)-7-[(3-morpholin-4-ylpropyl)oxy]quinolin-4-yl}oxy)phenyl]-N′-(4-fluorophenyl)-2-methylcyclopropane-1,1-dicarboxamide]						< 50	< 50	< 50	< 50	50 to 500
COc1cc2c(Oc3ccc(NC(=O)C(=O)NCc4ccccc4Cl)cc3F)ccnc2cc1OCC1CCNCC1 [Example 245, N-[(2-chlorophenyl)methyl]-N′-[3-fluoro-4-({6-(methyloxy)-7-[(piperidin-4-ylmethyl)oxy]quinolin-4-yl}oxy)phenyl]ethanediamide]	< 50	< 50	< 50	< 50	< 50					
COc1cc2c(Oc3ccc(NC(=O)C4(C(=O)Nc5ccc(F)cc5)CC4)cc3F)ncnc2cc1OCC1CCN(C)CC1 [Example 316, N-{3-fluoro-4-[(6-(methyloxy)-7-{[(1-methylpiperidin-4-yl)methyl]oxy}quinazolin-4-yl)oxy]phenyl}-N′-(4-fluorophenyl)cyclopropane-1,1-dicarboxamide]						< 50	< 50	< 50	< 50	< 50
COc1cc2c(Oc3ccc(NC(=O)C(=O)NCCc4ccc(Br)cc4)cc3F)ccnc2cc1OCC1CCNCC1 [Example 230, N-[2-(4-bromophenyl)ethyl]-N′-[3-fluoro-4-({6-(methyloxy)-7-[(piperidin-4-ylmethyl)oxy]quinolin-4-yl}oxy)phenyl]ethanediamide]	50 to 500	< 50	< 50	50 to 500	50 to 500					
COc1cc2c(Oc3cc(C)c(NC(=O)C4(C(=O)Nc5ccc(F)cc5)CC4)cc3F)ccnc2cc1OCCCN1CCOCC1 [Example 326, N-[5-fluoro-2-methyl-4-({6-(methyloxy)-7-[(3-morpholin-4-ylpropyl)oxy]quinolin-4-yl}oxy)phenyl]-N′-(4-fluorophenyl)cyclopropane-1,1-dicarboxamide]						50 to 500	< 50	< 50	50 to 500	50 to 500
COc1cc2c(Oc3ccc(NC(=O)C(=O)NCc4ccc(F)c(C(F)(F)F)c4)cc3F)ccnc2cc1OCC1CCNCC1 [Example 216, N-[3-fluoro-4-({6-(methyloxy)-7-[(piperidin-4-ylmethyl)oxy]quinolin-4-yl}oxy)phenyl]-N′-{[4-fluoro-3-(trifluoromethyl)phenyl]methyl}ethanediamide]	< 50	< 50	< 50	< 50	50 to 500					
COc1cc2ncnc(Oc3ccc(NC(=O)C4(C(=O)Nc5ccc(F)cc5)CC4)cc3)c2cc1OC [Example 310, N-(4-{[6,7-bis(methyloxy)quinazolin-4-yl]oxy}phenyl)-N′-(4-fluorophenyl)cyclopropane-1,1-dicarboxamide]						< 50	< 50	< 50	< 50	< 50
COc1cc2c(Oc3ccc(NC(=O)C(=O)N[C@H]4CCCc5ccccc54)cc3F)ccnc2cc1OCC1CCNCC1 [Example 219, N-[3-fluoro-4-({6-(methyloxy)-7-[(piperidin-4-ylmethyl)oxy]quinolin-4-yl}oxy)phenyl]-N′-[(1S)-1,2,3,4-tetrahydronaphthalen-1-yl]ethanediamide]	< 50	< 50	< 50	< 50	< 50					
COc1cc2c(Oc3ccc(NC(=O)C(=O)NCCN4CCOCC4)cc3F)ccnc2cc1OCC1CCNCC1 [Example 298, N-[3-fluoro-4-({6-(methyloxy)-7-[(piperidin-4-ylmethyl)oxy]quinolin-4-yl}oxy)phenyl]-N′-(2-morpholin-4-ylethyl)ethanediamide]						< 50	50 to 500	< 50	50 to 500	50 to 500
O=C(Nc1ccc(F)cc1)C1(C(=O)Nc2ccc(Oc3ccnc4cc(Cl)ccc34)cc2)CC1 [Example 308, N-{4-[(7-chloroquinolin-4-yl)oxy]phenyl}-N′-(4-fluorophenyl)cyclopropane-1,1-dicarboxamide]						500 to 5000	< 50	< 50	50 to 500	50 to 500
COc1cc2c(Oc3ncc(NC(=O)C4(C(=O)Nc5ccc(F)cc5)CC4)cc3Cl)ccnc2cc1OCC1CCNCC1 [Example 282, N-[5-chloro-6-({6-(methyloxy)-7-[(piperidin-4-ylmethyl)oxy]quinolin-4-yl}oxy)pyridin-3-yl]-N′-(4-fluorophenyl)cyclopropane-1,1-dicarboxamide]						< 50	< 50	< 50	< 50	< 50
